Earlier results on 2 molecules are cited in patent publication US9309233B2, “Compositions and methods for the treatment of blood clotting disorders” (CELLIX BIO PRIVATE LIMITED, priority 2012, dated 2016).

The structures appear in SMILES notation.

As for `CCCCCCOC(=O)NC(=N)c1ccc(NCc2nc3cc(C(=O)N(CCC(=O)OCC)c4ccccn4)ccc3n2C)cc1` [Dabigatran etexilate], the oral bioavailability entry (oral) is recorded as “≈ 6%”. On to `[H]/N=C(/N)c1ccc(NCc2nc3cc(C(=O)N(CCC(=O)O)c4ccccn4)ccc3n2C)cc1` [dabigatran], for which the “time at which plasma levels peak” value (plasma levels of dabigatran after drug administration (dabigatran etexilate)) was “≈ 2 hours”.
